Data from US20220177484A1, “MACROCYCLES WITH ANTIOXIDANT AND NEUROPROTECTIVE ACTIVITIES” (INSTITUTO BIOMAR, S.A, priority 2019, published 2022).

How the values were obtained:
[1] = test system: cortical primary neurons (from C57BL6/J mice); assay: H2O2 production in neurons after excitotoxic NMDA stimulus (Amplex Red); format: cell-based; settings: 100 μM NMDA 10 min, then compound 0.1, 1, 5 μM (FIG. 5)
Protocol: For NMDA receptors activation, neurons at 8 days in vitro were incubated with 100 μM NMDA for 10 minutes. Neurons were then washed and further incubated for 4 hours in culture medium with DMSO only (DMSO empty bar), DMSO and NMDA (DMSO filled bar) and with increasing quantities of GKK1032C, GKK1032, Pyrrocidine A, Pyrrocidine B, CL0661, CL0667 and CL0670. Concentrations of 0.1 μM, 1 μM, 5 μM. *: p-value <0.05 vs. DMSO+NMDA (student's test).
Experiments were performed in […] cortical primary neurons, obtained as was previously described (Herrero-Mendez A. et al., Nat. Cell. Biol. 11:747-752, 2009). After 7 or 8 days in B27-MAO culture, neurons (from C57BL6/J mice) were incubated in the presence of N-methyl-D-aspartate (NMDA, a H2O2 production promoter; 100 μM) for 10 minutes, followed by a PBS washing step and submitted to a 24-hour B27 incubation step in the absence (DMSO) or presence of increasing amounts of GKK1032C, GKK1032, Pyrrocidine B, Pyrrocidine A, CL0661, CL0665, CL0667 and CL0670 (0.1 μM, 1 μM and 5 μM). B27-MAO stands for Neurobasal medium, supplemented with B27 supplement in the absence of antioxidants (minus antioxidants, MAO).
The release of H2O2 was measured using the fluorescent method Amplex© Red hydrogen peroxide/peroxidase assay kit (Invitrogen, catalog number A22188) using a multiwell fluorescence reader (Varioskan, Thermo Scientific).
The data are presented as the mean values±standard deviation of the mean from n=3.

C57BL6/J male mice [2] = assay: Rotarod test in 3-nitropropionic acid chemical model of Huntington's disease; format: in vivo; settings: group II injected with GKK1032C and CL0670, once-daily 150 mg/kg for 3 days, plus 3-nitropropionic acid 50 mg/kg twice daily; after two administrations (FIG. 15)
Protocol: Compound I and CL0670 injections were performed at day 1 and day 2. 3-nitropropionic acid injections were performed at days 1, 1.5, 2, 2.5, 3 and 3.5. The shown data points were obtained 2 hours after the injections. p-value<0.05 vs. control (student's test).
A chemical model of Huntington's disease was conducted to evaluate the capacity of compound I and CL0670 in protecting neurons. This is achieved by intraperitoneal injection of 3-nitropropionic acid which induces neuronal oxidative stress by inhibiting the succinate dehydrogenase enzyme.
8-weeks old C57BL6/J male mice were divided into 4 groups.
Mice in group I (4 mice) were injected with GKK1032C and CL0670 (once-daily dose of 150 mg/kg for 3 days).
Mice in group II (5 mice) were injected with GKK1032C and CL0670 (once-daily dose of 150 mg/kg for 3 days) and with 3-nitropropionic acid (twice daily dose of 50 mg/kg for 3 days). In the case of group II, 3-nitropropionic acid was injected two hours and twelve hours after injection with GKK1032C and CL0670.
Mice in group III (5 mice) were injected with 3-nitropropionic acid (twice daily dose of 50 mg/kg for 3 days).
Mice in group IV (6 mice) were injected with vehicle only.
The mice were submitted to the rotarod test once-daily, 2 hours after the injections. […]

[3] = test system: rat cortical primary neurons; assay: H2O2 formation in cortical primary neurons treated with L-BSO and rotenone (Amplex Red); format: cell-based
Protocol: The data are presented as the mean values±[…] of the mean (SEM) from n=6 (i.e., 6 independent wells measured independently).
After this period, cells were again washed and determined the rate of H2O2 production during the next 2 h.

[4] = Pharmacokinetics in plasma and brain after intraperitoneal administration; format: in vivo, female C57BL/6 mice; settings: 150 mg/Kg intraperitoneal
Protocol: FIG. 10 represents the concentration of Compound I in plasma and brain of female C57BL/6 mice collected at t=0 min, 5 min, 15 min, 30 min, 1 hour, 4 hours, 10 hours, 24 hours and 48 hours.
The Maximum Tolerated Dose (MTD) and Pharmacokinetics (PK) of compound I were determined after intraperitoneal administration to female C57BL/6 (˜25 g) 9 weeks old mice. The injection comprised a 150 mg/Kg dose of compound I in Creomophor-EtOH-H2O (10:5:85). The concentrations of GKK1032C in plasma and brain were determined at different times per duplicate (pre-dose, 5 min, 15 min, 30 min, 1 h, 4 h, 10 h, 24 h and 48 h) using a previously validated analytical method. […] The highest concentration in the brain is 850 ng/mL at 4 hours after injection and progressively declined until reaching the control levels at 24 hours post-administration.

C57BL6/J male mice [5] = assay: Rotarod test under normal conditions; format: in vivo; settings: once-daily 150 mg/kg intraperitoneal for 3 days, normal mice (FIG. 11)
Protocol: FIG. 11 represents the results from the rotarod test to 8 weeks-old C57BL6/J male mice separated in two groups: Control (mice injected with vehicle) and Compound I (mice injected with a once-daily dose of 150 mg/kg of Compound I).
(§1) Experiments were conducted to evaluate if the intraperitoneal administration of Compound I to mice would have any effect in the animal's motor coordination, fear/anxiety and short-term memory behaviour. The motivation for this experiment is to determine if, under normal conditions, the injection of compound I would affect the behaviour of 8 weeks-old C57BL6/J male mice, in vivo. Mice were separated in group I (vehicle injection only) and group II (compound I injection). The mice were injected with a once-daily dose of 150 mg/kg for 3 days. The tests consisted in the rotarod performance test (at day 1, 2, 3 and 4), the open field test (at day 2 and 3) and the novel object recognition test (at day 4 only).

C57BL6/J male mice [6] = assay: Novel Object Recognition test under normal conditions; format: in vivo; settings: once-daily 150 mg/kg intraperitoneal for 3 days, test at day 4
Protocol: as §1

| SMILES | H2O2 production in neuron cells after NMDA [1] | motor discoordination (rotarod) induced by 3-nitropropionic acid (C57BL6/J male mice [2]) | rate of H2O2 formation by the neurons ([3]; L-BSO + rotenone 6 h, washed, then compound added at 1 and 5 μg/ml, H2O2 release recorded 2 h (FIG. 1)) | rate of H2O2 formation ([3]; compound 1 μg/ml together with L-BSO and rotenone for 6 h, washed, recorded 2 h (FIG. 2)) | H2O2 formation in untreated neurons ([3]; pre-treatment 5 μg/ml for 72 h, no L-BSO/rotenone (FIG. 3)) | L-BSO+rotenone-induced H2O2 formation ([3]; pre-treatment 5 μg/ml for 72 h, washed, then L-BSO and rotenone 6 h, recorded 2 h (FIG. 3)) | highest concentration in the plasma ([4]; Creomophor-EtOH-H2O (10:5:85), mice (FIG. 10)) | crossing of the blood-brain barrier ([4]; mice) | duration of high levels in the brain ([4]; mice) | highest concentration in the brain ([4]; mice) | time at which brain concentration reaches the control levels post-administration ([4]; mice) | time of highest concentration in the brain after injection ([4]; mice) | time of highest concentration in the plasma after injection ([4]; mice) | motor coordination (rotarod) (C57BL6/J male mice [5]) | short-term memory (Novel Object Recognition) (C57BL6/J male mice [6]) |
| --- | --- | --- | --- | --- | --- | --- | --- | --- | --- | --- | --- | --- | --- | --- | --- |
| C=CC1(C)C=C(C)C2C3C(Oc4ccc(cc4)CC4C(=O)NC(O)C4C(=O)C31)C1C(C)CC(C)CC21C (centres unmarked) [CL0670] | successful in preventing H2O2 from being produced | prevent partially |  |  |  |  |  |  |  |  |  |  |  |  |  |
| C=CC1(C)C=C(C)C2C3C(Oc4ccc(cc4)CC4(O)NC(=O)C5(OC45)C(=O)C31)C1C(C)CC(C)CC21C (centres unmarked) [Compound I] | successful in preventing H2O2 from being produced | prevent partially | dose-dependently decreased | significantly impaired | prevented | very significantly prevented | 30000 ng/mL | successfully crosses the blood-brain barrier | about 18 hours | 850 ng/mL | 24 h | 4 h | 4 h | no effect | did not alter |
